Earlier results, collected in patent publication US12629369B2, “Pharmaceutical compositions of nilotinib” (AZURITY PHARMACEUTICALS, INC., priority 2019, dated 2026).
Structures can show the parent of a compound that is named as a salt.

Experiments:
[1] = taken with or after meals, particularly high fat meals (Castagnetti et al 2008)

water solubility	increase of extent of absorption (area under the plasma profile curve) [1] [%]	increase of rate of absorption (Cmax) [1] [%]	solubility in aqueous solutions (25° C., pH 4.5 and higher)	Structure (SMILES)
poorly water soluble				Cc1cn(-c2cc(NC(=O)c3ccc(C)c(Nc4nccc(-c5cccnc5)n4)c3)cc(C(F)(F)F)c2)cn1 [Nilotinib hydrochloride]
	82	112	practically insoluble	Cc1cn(-c2cc(NC(=O)c3ccc(C)c(Nc4nccc(-c5cccnc5)n4)c3)cc(C(F)(F)F)c2)cn1 [Nilotinib, 4-methyl-N-[3-(4-methyl-1H-imidazol-1-yl)-5-(trifluoromethyl)phenyl]-3-[[4-(3-pyridinyl)-2-pyrimidinyl]amino]-benzamide]
